The values below come from PubChem BioAssay AID488808 (NMMLSC, 2010).

Molecules are shown by their SMILES. Active and inactive are the calls of the source.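 The calls were made as follows: active = EC50 at or below 33 microM; inactive = the rest.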

This test concerns S. cerevisiae RPL19A-GFP strain, flow cytometry fluorescence, 3 h. In words: yeast TOR reporter RPL19A-GFP, SAR compounds – cell-based, S. cerevisiae, flow cytometry, KU SAR compounds, SAR follow-up (AID 488808).
In the case of `CN1CCN(C(=O)c2cc(COc3c(F)cccc3F)on2)CC1c1ccccc1` (configuration not stated), the EC50 was 58.4 µM (inactive).
The value for `CCOC(=O)c1c(C)oc2c1c(C(c1cccnc1)N1CCOCC1)c(O)c1ccccc12` (configuration not stated) was 2.78 µM; that for `Cc1cc(C(=O)Nc2nc(-c3ccccn3)cs2)ccc1[N+](=O)[O-]` was 85.3 µM (inactive).
With `Cc1ccc2nc(Cl)c3nnnn3c2c1`, the EC50 was 2.11 µM.
Consider `CN(C)CCCNc1nc(N)c([N+](=O)[O-])c(Nc2cccc(F)c2)n1`, for which the EC50 was 106 µM (inactive).
The value for `CCOC(=O)CCS(=O)(=O)c1nc(-c2ccccc2)cc(C(F)(F)F)n1` was 47.9 µM (inactive).
As to `Nc1cc(Nc2cccc(F)c2)nc(NCc2ccccc2)n1`, the EC50 was 292 µM (inactive).
The value for `CC(=O)Nc1ncnc2c1c(-c1ccc(Cl)cc1)nn2C(C)(C)C` was 11.5 µM.
The value for `O=c1cc(CSc2ccc(Cl)cc2)nc(-c2ccccn2)[nH]1` was 1.27 µM; that for `O=C(OCn1ncc(Br)c(Br)c1=O)c1c(F)cccc1F` was 3.55 µM; that for `CCC(C)Nc1nc(N)c([N+](=O)[O-])c(Nc2cccc(F)c2)n1` (configuration not stated) was 50 µM (inactive).
The value for `COC(=O)CCS(=O)(=O)c1nc(-c2ccccc2)cc(C(F)(F)F)n1` was 66.5 µM (inactive); that for `Cc1ccc(S(=O)(=O)c2ccc([N+](=O)[O-])cn2)cc1` was 3.77 µM; that for `Cc1ccc(-c2nn(C(C)(C)C)c3ncnc(N)c23)cc1` was 1.19 µM.
As for `CSC1=NS(=O)(=O)c2c(C)nn(C)c2S1`, the EC50 is 175 µM (inactive).
The value for `Clc1ccc(N=c2ssnc2Cl)cc1` was 2.03 µM.
The same measure for `CNc1nc(N)c([N+](=O)[O-])c(Nc2cccc(F)c2)n1`: 5.19 µM; for `Cc1cc(C(=O)COC(=O)c2ccc[nH]c2=O)c(C)n1-c1ccccc1F`: 3.28 µM.
The value for `CC1=NN(c2ccccc2)C(=O)C1C(c1ccccc1[N+](=O)[O-])C(C#N)C#N` (configuration not stated) was 3.65 µM; that for `CCOC(=O)CSC1=NC(=O)/C(=C\c2ccc(Cl)cc2)S1` was 16 µM; that for `Cc1ccc(NC(=O)c2cc(N3C(=O)C=CC3=O)ccc2N2CCOCC2)cc1Cl` was 0.78 µM.
With `O=[N+]([O-])c1cc(S(=O)(=O)C(F)(F)F)ccc1Sc1nc2ccccc2s1`, the EC50 was 17.3 µM.
On to `Cc1ccc(NC(=O)c2ccc(Cl)c(N3C(=O)C=CC3=O)c2)cc1`, for which the EC50 is 3.03 µM.
The same measure for `CC(C)(C)n1nc(-c2ccc(Cl)cc2)c2c(N)ncnc21`: 0.42 µM; for `COc1ccc(/C=C/C(=O)NC(=S)NNC(=O)c2cnccn2)cc1`: 11.4 µM; for `O=[N+]([O-])c1ccc(O)c2ncccc12`: 25.4 µM.
The value for `Cc1ccc(C(=O)NNC(=S)NC(=O)COc2ccccc2)cc1` was 52.7 µM (inactive); that for `CCN(CC)C(=O)Oc1ccnc2cc(Cl)ccc12` was 119 µM (inactive).
The same measure for `COc1ccc([N+](=O)[O-])c(S(=O)(=O)c2ccccc2)n1`: 35.4 µM (inactive); for `O=C(OCC(=O)N1CCN(C(=O)c2ccco2)CC1)c1cc(-c2ccc(F)cc2)nc2ccccc12`: 3.01 µM; for `CCOC(=O)CS(=O)(=O)c1nc(-c2ccccc2)cc(C(F)(F)F)n1`: 30.2 µM.
`COc1ccc([N+](=O)[O-])c(S(=O)(=O)c2ccc(Cl)cc2)n1`: the EC50 was 4.49 µM.
The same measure for `O=S(=O)(CCN(CCS(=O)(=O)C(F)(F)F)CC1CCCO1)C(F)(F)F` (configuration not stated): 21.7 µM; for `CC(Oc1ccc(Cl)cc1)C(=O)NNC(=S)NC(=O)c1ccco1` (configuration not stated): 3.54 µM.
The value for `c1ccc(-c2cccc(-c3ccccn3)n2)nc1` was 49.9 µM (inactive); that for `C[C@H]1C[C@@H](C)C(=O)[C@@H]([C@H](O)CC2CC(=O)NC(=O)C2)C1` was 0.42 µM; that for `CC(C)(C)n1nc(-c2ccc(F)cc2)c2c(N)ncnc21` was 1.01 µM.
The same measure for `O=C(Oc1c(Cl)cc(Cl)c2cccnc12)c1cccc([N+](=O)[O-])c1`: 59.9 µM (inactive); for `CCc1ccc(OCC(=O)NNC(=S)NC(=O)C2CC2)c(Br)c1`: 2.74 µM; for `Cc1nn2c(-c3ccncc3)nnc2c2ccccc12`: 4.6 µM.
For `O=[N+]([O-])c1cc(Cl)c2cccnc2c1O`, the EC50 was 27.2 µM.
Turning to `Cc1ccc(S(=O)(=O)c2ncccc2[N+](=O)[O-])cc1`, the EC50 is 68.6 µM (inactive).
The value for `O=[N+]([O-])c1ccc(S(=O)(=O)c2cccc(C(F)(F)F)c2)nc1` was 1.37 µM; that for `CC(C)(C)c1ccc(NC(=O)COC(=O)c2ccc([N+](=O)[O-])s2)cc1` was 2.02 µM; that for `C/C(=N\NC(=O)c1ccc(C(C)(C)C)cc1)c1ccccn1` was 293 µM (inactive).
Consider `C[C@@H]1C[C@@H]([C@H](O)CC2CC(=O)NC(=O)C2)C(=O)[C@@H](C)C1`, for which the EC50 was 0.87 µM.
The value for `O=C(Oc1ccnc2cc(Cl)ccc12)N1CCCCCC1` was 16.7 µM; that for `CC(C)(C)C(=O)NC(=S)NNC(=O)c1ccc(-c2ccccc2)cc1` was 30.2 µM; that for `O=C(OCC(=O)N1CCN(C(=O)c2ccco2)CC1)c1cc(-c2cccc(Br)c2)nc2ccccc12` was 8.08 µM.
The same measure for `O=C(NC(=S)NNC(=O)c1cnccn1)c1ccc(F)cc1`: 3.66 µM; for `Cn1ncc(S(=O)(=O)Cc2ccccc2)c(Cl)c1=O`: 2.73 µM.
The value for `O=C(OCn1ncc(Br)c(Br)c1=O)c1ccc(F)cc1` was 4.53 µM.
Take `CSc1nnc2c3cc(F)ccc3n(C)c2n1`: the EC50 is 1.14 µM.
The value for `Nc1cc(Oc2cccc(Cl)c2)nc(NCc2ccccc2)n1` was 252 µM (inactive); that for `CNc1nc(N)c([N+](=O)[O-])c(Nc2cc(OC)ccc2OC)n1` was 3.04 µM.
The same measure for `CC(C)(C)C(=O)C(Cl)C(=O)Nc1ccccc1` (configuration not stated): 4.18 µM; for `COc1ccc(C(=O)NC(=S)NNC(=O)c2cnccn2)cc1`: 0.71 µM.

For orientation: EC50 means the midpoint of the concentration-response curve.
